Values after ≈ are worked out from the molar mass of the structure shown. Read-outs that look alike come from different tables or passages of the source. Where a SMILES comes first, the peptide text is derived from it.
Assays:
Aeromonas salmonicida = assay type: cell-based; conditions: 18 h
Source text: (§1) Fish bacterial pathogens, Streptococcus iniae (stock 00–1425; isolated from rainbow trout, Oncorhynchus mykiss), Lactococcus garvieae (stock 00–1422; multiple antibiotic-resistant strain), Vibrio anguillarum (stock 91–3057; ATCC 19264), and Aeromonas salmonicida (stock 91–3053; ATCC® 7965™), and human bacterial pathogens, Enterococcus faecalis (stock 00–1403; ATCC 29212), Staphylococcus aureus (ATCC 29213), Shigella flexneri (stock 00–1402; ATCC 12022), and Escherichia coli (stock 00–1405; ATCC 25922), were cultured from frozen stocks stored in glycerol at -80°C. L. garvieae, A. salmonicida, E. faecalis, S. aureus, and S. flexneri were grown in Mueller Hinton Broth (MHB); the MHB was supplemented with 1% NaCl for L. garvieae. S. iniae, and V. anguillarum were grown in Tryptic Soy Broth (TSB) supplemented with 1.5% NaCl and E. coli was grown in Luria-Bertani Broth (LB). The fish and human pathogens were grown at 25°C and 37°C, respectively, while shaking at 200 rpm for 18 h except for S. iniae, which was grown for 48 h. The cultures were passaged at least three times each when in log phase to ensure that they had acclimated to culture.
(§2) The minimum inhibitory concentrations (MIC) and minimum bactericidal concentrations (MBC) were determined as previously described following standard methods recommended by the […] for MIC90 and MBC determinations of clinical isolates with some modifications. Overnight bacterial cultures were diluted to 80–88% transmittance in their appropriate medium. The cultures were then diluted again to 1:200 and 100 μL was pipetted into each of 3 wells in 11 columns of a 96-well plate (Corning, Inc., Tewksbury, MA), the 12th column loaded with media without bacteria as a sterility control and blank.
(§3) The synthetic piscidin peptides (piscidins 1, 4, and 7 from striped bass; piscidins 1, 5, and 6 from white bass; and piscidin 3 corresponding to both striped bass and white bass) were prepared by diluting the 4 mg/mL stocks to 2 mg/mL in 0.2% bovine serum albumin (BSA) + 0.01% acetic acid. These were then serially diluted to a concentration of 3.9 μg/mL in the same diluent. The piscidin dilutions were added to the first 10 columns of the 96-well plate containing bacteria, […] was loaded with diluent only to act as a positive growth control. The final concentrations tested were 200 μg/mL to 0.39 μg/mL. The plates were incubated with shaking at 200 rpm for 18 h, except for S. iniae, which was incubated for 48 h. Fish pathogens and human pathogens were incubated at 25°C and 37°C, respectively. […] The MIC was taken as the lowest concentration of piscidin that reduced growth when compared to the growth control by more than 50%. To determine the MBC, 20 μL of the media from the wells of the three lowest piscidin concentrations that had no visible growth of bacteria were plated onto the appropriate media plates and incubated as described above. Colonies were counted to determine whether growth was equal to or less than 0.1% of the colony forming units (CFUs) in the original inoculum. The MBC was defined as the lowest concentration of piscidin that killed at least 99.9% of the CFUs in the original inoculum.

Enterococcus faecalis = assay type: cell-based; conditions: 18 h
Source text: as §1, §2, §3

Lactococcus garvieae = assay type: cell-based; conditions: 18 h
Source text: as §1, §2, §3

Staphylococcus aureus = assay type: cell-based; conditions: 37°C, 18 h; for MIC: S. aureus ATCC 29213, Gram +, human pathogen, MHB, OD630, growth reduced by more than 50%; for MBC: S. aureus ATCC 29213, kills at least 99.9% of CFUs of original inoculum
Source text: as §1, §2, §3

Streptococcus iniae = assay type: cell-based; conditions: 48 h; for MIC: S. iniae stock 00–1425, Gram +, fish pathogen, TSB + 1.5% NaCl, OD630, MIC = lowest concentration reducing growth by more than 50%, 3 wells, 200 to 0.39 μg/mL tested
Source text: as §1, §2, §3

Vibrio anguillarum = assay type: cell-based; conditions: 18 h
Source text: as §1, §2, §3

E. coli = assay type: cell-based, Escherichia coli; conditions: 18 h
Source text: as §1, §2, §3

Tetrahymena pyriformis = conditions: piscidin 1 not among peptides tested, previously observed results, cited from earlier work; for PC100 (100% parasiticidal concentration): lowest concentration that killed all T. pyriformis
Source text: Table 4 Minimum parasiticidal concentrations (PCmin) and 100% parasiticidal concentrations (PC100) of various synthetic hybrid striped bass piscidins against the ciliated protozoan, Tetrahymena pyriformis. | column: PCmin (uM) / SB P1; PC100 (uM) / SB P1; PC100 (uM) / WB P1

Shigella flexneri = assay type: cell-based; conditions: S. flexneri ATCC 12022; kills at least 99.9% of CFUs of original inoculum; 37°C, 18 h
Source text: as §1, §2, §3

[1] = E. faecalis ATCC 29212, kills at least 99.9% of CFUs of original inoculum, 37°C
[2] = L. garvieae stock 00–1422, kills at least 99.9% of CFUs of original inoculum, 25°C
[3] = S. iniae stock 00–1425, lowest concentration killing at least 99.9% of CFUs of original inoculum, plated from MIC wells, 25°C

SMILES | MBC (Aeromonas salmonicida) | MIC (Aeromonas salmonicida) | MIC (Enterococcus faecalis) | MBC (Enterococcus faecalis; [1]) | MBC (Lactococcus garvieae; [2]) | MIC (Staphylococcus aureus) | MBC (Staphylococcus aureus) | MIC (Streptococcus iniae; 25°C) | MBC (Streptococcus iniae; [3]) | MBC (Vibrio anguillarum) | MBC (E. coli) | MIC (E. coli) | PC100 (100% parasiticidal concentration) (Tetrahymena pyriformis) | also measured
CC[C@H](C)[C@H](NC(=O)CNC(=O)[C@H](CCCNC(=N)N)NC(=O)[C@H](Cc1ccccc1)NC(=O)[C@@H](NC(=O)[C@H](Cc1c[nH]cn1)NC(=O)[C@H](Cc1c[nH]cn1)NC(=O)[C@H](Cc1ccccc1)NC(=O)[C@@H](N)Cc1ccccc1)[C@@H](C)CC)C(=O)N[C@H](C(=O)N[C@@H](Cc1c[nH]cn1)C(=O)N[C@H](C(=O)NCC(=O)N[C@@H](CCCCN)C(=O)N[C@H](C(=O)N[C@H](C(=O)N[C@@H](Cc1c[nH]cn1)C(=O)N[C@@H](CCCCN)C(=O)N[C@@H](CC(C)C)C(=O)N[C@H](C(=O)N[C@H](C(=O)NCC(=O)O)[C@@H](C)O)C(C)C)[C@@H](C)CC)[C@@H](C)O)C(C)C)C(C)C [WB P1] (H-FFHHIFRGIVHVGKTIHKLVTG-OH; N-terminus and C-terminus assumed) | >78.61 µM | >78.61 µM | 1.23 µM (≈ 3.13 µg/mL) | 2.46 µM (≈ 6.26 µg/mL) | 2.46 µM (≈ 6.26 µg/mL) | 2.46 µM (≈ 6.26 µg/mL) | 2.46 µM (≈ 6.26 µg/mL) | 2.46 µM | 2.46 µM (≈ 6.26 µg/mL) | 9.83 µM (≈ 25 µg/mL) | >78.61 µM | 4.91 µM (≈ 12.5 µg/mL) | 2.48 µM | 
CC[C@H](C)[C@H](NC(=O)CNC(=O)[C@H](CCCNC(=N)N)NC(=O)[C@H](Cc1ccccc1)NC(=O)[C@@H](NC(=O)[C@H](Cc1c[nH]cn1)NC(=O)[C@H](Cc1c[nH]cn1)NC(=O)[C@@H](NC(=O)[C@@H](N)Cc1ccccc1)[C@@H](C)CC)[C@@H](C)CC)C(=O)N[C@H](C(=O)N[C@@H](Cc1c[nH]cn1)C(=O)N[C@@H](C)C(=O)NCC(=O)N[C@@H](CCCNC(=N)N)C(=O)N[C@@H](CO)C(=O)N[C@H](C(=O)NCC(=O)N[C@@H](CCCNC(=N)N)C(=O)N[C@@H](Cc1ccccc1)C(=O)N[C@@H](CC(C)C)C(=O)N[C@H](C(=O)NCC(=O)O)[C@@H](C)O)[C@@H](C)CC)C(C)C [SB/WB P3] (H-FIHHIFRGIVHAGRSIGRFLTG-OH; N-terminus and C-terminus assumed) | >80.26 µM | >80.26 µM | 1.26 µM (≈ 3.14 µg/mL) |  |  |  |  |  |  | 20.06 µM (≈ 50 µg/mL) | 80.26 µM (≈ 200 µg/mL) | 80.26 µM (≈ 200 µg/mL) |  | MBC (Enterococcus faecalis): 10.03 µM (≈ 25 µg/mL); MBC (Lactococcus garvieae): 5.02 µM (≈ 12.5 µg/mL); MBC (Streptococcus iniae): 2.51 µM (≈ 6.25 µg/mL)
CC[C@H](C)[C@H](NC(=O)CNC(=O)[C@H](CCCNC(=N)N)NC(=O)[C@H](Cc1ccccc1)NC(=O)[C@@H](NC(=O)[C@H](Cc1c[nH]cn1)NC(=O)[C@H](Cc1c[nH]cn1)NC(=O)[C@H](Cc1ccccc1)NC(=O)[C@@H](N)Cc1ccccc1)[C@@H](C)CC)C(=O)N[C@H](C(=O)N[C@@H](Cc1c[nH]cn1)C(=O)N[C@H](C(=O)NCC(=O)N[C@@H](CCCCN)C(=O)N[C@H](C(=O)N[C@H](C(=O)N[C@@H](Cc1c[nH]cn1)C(=O)N[C@@H](CCCNC(=N)N)C(=O)N[C@@H](CC(C)C)C(=O)N[C@H](C(=O)N[C@H](C(=O)NCC(=O)O)[C@@H](C)O)C(C)C)[C@@H](C)CC)[C@@H](C)O)C(C)C)C(C)C [SB P1] (H-FFHHIFRGIVHVGKTIHRLVTG-OH) |  |  |  | 2.43 µM (≈ 6.25 µg/mL) | 1.22 µM (≈ 3.14 µg/mL) | 2.43 µM (≈ 6.25 µg/mL) | 2.43 µM (≈ 6.25 µg/mL) | 1.22 µM | 1.22 µM (≈ 3.14 µg/mL) |  |  |  | 5 µM | MIC (Aeromonas salmonicida; A. salmonicida ATCC 7965, Gram -, fish pathogen, MHB, 25°C, OD630, growth reduced by more than 50%): >77.76 µM; MIC (Enterococcus faecalis; E. faecalis ATCC 29212, Gram +, human pathogen, MHB, 37°C, OD630, growth reduced by more than 50%): 1.22 µM (≈ 3.14 µg/mL); MIC (Lactococcus garvieae; L. garvieae stock 00–1422 (multiple antibiotic-resistant), Gram +, fish pathogen, MHB + 1% NaCl, 25°C, OD630, growth reduced by more than 50%): 1.22 µM; MBC (Shigella flexneri): 4.86 µM (≈ 12.5 µg/mL); MIC (Vibrio anguillarum; V. anguillarum ATCC 19264, Gram -, fish pathogen, TSB + 1.5% NaCl, 25°C, OD630, growth reduced by more than 50%): 2.43 to 4.86 µM; MBC (Vibrio anguillarum; V. anguillarum ATCC 19264, kills at least 99.9% of CFUs of original inoculum, 25°C): 9.72 µM (≈ 25 µg/mL); MIC (E. coli; E. coli ATCC 25922, Gram -, human pathogen, LB, 37°C, OD630, growth reduced by more than 50%): 4.86 µM (≈ 12.5 µg/mL); PCmin (minimum parasiticidal concentration) (Tetrahymena pyriformis; lowest concentration that killed at least one T. pyriformis): 2.5 µM
